Results from PubChem BioAssay AID330 (DTP/NCI, 2004).
“And” between values parts separate entries of the source, which are not always exact repeats. Identical values can stand only once. Inconclusive results and toxic doses are left out. How the source made its calls: active means survival T/C of 150% or more; inactive means T/C below 125% in these data.

System: P388 leukemia ip, CD2F1 mice, survival T/C
Test: NCI In Vivo Anticancer Drug Screen. Data for tumor model P388 Leukemia (intraperitoneal) in CD2F1 (CDF1) mice
Conditions: endpoint: median survival time, higher = longer survival
In short: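 Mice carrying the transplanted tumor received test compound or vehicle. Survival was recorded in each group, and the value is the treated-group measurement divided by that of the vehicle-treated control group.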

[1] = dose: 60.0 mg/kg/injection, schedule: Q01DX005 (ip), vehicle: saline with Tween-80
[2] = dose: 100.0 mg/kg/injection, schedule: Q04DX002 (ip), vehicle: saline
[3] = dose: 200.0 mg/kg/injection, schedule: Q04DX002 (ip), vehicle: saline
[4] = dose: 400.0 mg/kg/injection, schedule: Q04DX002 (ip), vehicle: saline
[5] = dose: 50.0 mg/kg/injection, schedule: Q01DX009 (ip), vehicle: Klucel (hydroxypropylcellulose) (HPC)
[6] = dose: 100.0 mg/kg/injection, schedule: Q01DX009 (ip), vehicle: Klucel (hydroxypropylcellulose) (HPC)
[7] = dose: 200.0 mg/kg/injection, schedule: Q01DX009 (ip), vehicle: Klucel (hydroxypropylcellulose) (HPC)
[8] = dose: 50.0 mg/kg/injection, schedule: Q01DX005 (ip), vehicle: Klucel (hydroxypropylcellulose) (HPC)
[9] = dose: 200.0 mg/kg/injection, schedule: Q01DX005 (ip), vehicle: Klucel (hydroxypropylcellulose) (HPC)
[10] = dose: 50.0 mg/kg/injection, schedule: Q01DX009 (ip), vehicle: saline
[11] = dose: 100.0 mg/kg/injection, schedule: Q01DX009 (ip), vehicle: saline
[12] = dose: 200.0 mg/kg/injection, schedule: Q01DX009 (ip), vehicle: saline

Measured: T/C

O=C1NC(=O)C2NC(O)=C(O)NC2N1 (centres undefined)
inactive: dose: 12.5 mg/kg/injection, schedule: Q01DX001 (ip), vehicle: saline with Tween-80 102 % of control | dose: 25.0 mg/kg/injection, schedule: Q01DX001 (ip), vehicle: saline with Tween-80 108 % of control

CC(C)NC(=O)OCc1c(COC(=O)NC(C)C)c(S(=O)c2ccccc2)n2c1CCC2 (centres undefined)
inactive: dose: 25.0 mg/kg/injection, schedule: Q01DX005 (ip), vehicle: distilled water + Tween-80 113 % of control | dose: 50.0 mg/kg/injection, schedule: Q01DX005 (ip), vehicle: distilled water + Tween-80 110 % of control | dose: 100.0 mg/kg/injection, schedule: Q01DX005 (ip), vehicle: distilled water + Tween-80 113 % of control

Cc1c(O)c2ccccc2c2c1sc(NCCO)[n+]2C
inactive: dose: 15.0 mg/kg/injection, schedule: Q01DX005 (ip), vehicle: saline with Tween-80 100 % of control | dose: 30.0 mg/kg/injection, schedule: Q01DX005 (ip), vehicle: saline with Tween-80 105 % of control | [1] 98 % of control and 99 % of control

O=S(O)OC1(O)CCCCC1
inactive: [2] 110 % of control | [3] 95 % of control | [4] 100 % of control

O=C(CNN1C(=O)CSC1=Nc1cccc2ccccc12)c1cccc2c1Nc1ccccc1S2
inactive: [5] 102 % of control | [6] 102 % of control | [7] 98 % of control

O=c1[nH]nc2c3cccc4cccc(c5ccc(O)c1c52)c43
inactive: dose: 60.0 mg/kg/injection, schedule: Q01DX005 (ip), vehicle: Klucel (hydroxypropylcellulose) (HPC) 103 % of control | dose: 120.0 mg/kg/injection, schedule: Q01DX005 (ip), vehicle: Klucel (hydroxypropylcellulose) (HPC) 97 % of control | dose: 240.0 mg/kg/injection, schedule: Q01DX005 (ip), vehicle: Klucel (hydroxypropylcellulose) (HPC) 97 % of control

C=C(C)C(=O)OC1CCC2Cc3occ(C)c3C(OC(=O)C=C(C)C)C2(C)C1C (centres undefined)
inactive: dose: 10.0 mg/kg/injection, schedule: Q01DX009 (ip), vehicle: saline with Tween-80 103 % of control | dose: 20.0 mg/kg/injection, schedule: Q01DX009 (ip), vehicle: saline with Tween-80 101 % of control | dose: 40.0 mg/kg/injection, schedule: Q01DX009 (ip), vehicle: saline with Tween-80 100 % of control | dose: 80.0 mg/kg/injection, schedule: Q01DX009 (ip), vehicle: saline with Tween-80 98 % of control

CCOC(=O)CC1Cc2ccc3ccc(OC)cc3c2C1=O (centres undefined)
inactive: dose: 12.5 mg/kg/injection, schedule: Q01DX009 (ip), vehicle: distilled water + Tween-80 102 % of control | dose: 25.0 mg/kg/injection, schedule: Q01DX009 (ip), vehicle: distilled water + Tween-80 100 % of control | dose: 50.0 mg/kg/injection, schedule: Q01DX009 (ip), vehicle: distilled water + Tween-80 95 % of control | dose: 100.0 mg/kg/injection, schedule: Q01DX009 (ip), vehicle: distilled water + Tween-80 97 % of control | dose: 200.0 mg/kg/injection, schedule: Q01DX009 (ip), vehicle: distilled water + Tween-80 93 % of control

N#CCc1ccc(C(C#N)C(=O)CCC(=O)C(C#N)c2ccc(CC#N)cc2)cc1 (centres undefined)
inactive: dose: 50.0 mg/kg/injection, schedule: Q01DX005 (ip), vehicle: saline with Tween-80 100 % of control | dose: 100.0 mg/kg/injection, schedule: Q01DX005 (ip), vehicle: saline with Tween-80 100 % of control

O=S(=O)(O)CNc1ccc(Br)cc1
inactive: dose: 100.0 mg/kg/injection, schedule: Q04DX003 (ip), vehicle: saline 99 % of control | dose: 200.0 mg/kg/injection, schedule: Q04DX003 (ip), vehicle: saline 99 % of control | dose: 400.0 mg/kg/injection, schedule: Q04DX003 (ip), vehicle: saline 89 % of control

COC(=O)Nc1c2c(nc3ccccc13)-c1ccccc1C(C)(C)C2OC (centres undefined)
inactive: [8] 99 % of control | dose: 100.0 mg/kg/injection, schedule: Q01DX005 (ip), vehicle: Klucel (hydroxypropylcellulose) (HPC) 108 % of control | [9] 104 % of control

O=C1CCC(c2n[nH]c(=S)o2)N1Cc1ccccc1 (centres undefined)
inactive: [1] 98 % of control | dose: 120.0 mg/kg/injection, schedule: Q01DX005 (ip), vehicle: saline with Tween-80 100 % of control | dose: 240.0 mg/kg/injection, schedule: Q01DX005 (ip), vehicle: saline with Tween-80 103 % of control

OC(c1ccccc1)(c1ccccc1)c1ccc(C[P+](c2ccccc2)(c2ccccc2)c2ccccc2)cc1
inactive: dose: 1.56 mg/kg/injection, schedule: Q01DX009 (ip), vehicle: other 101 % of control | dose: 3.13 mg/kg/injection, schedule: Q01DX009 (ip), vehicle: other 117 % of control

COc1ccc(/C=N/n2cnc3c(sc4ccccc43)c2=O)cc1
inactive: dose: 12.5 mg/kg/injection, schedule: Q01DX005 (ip), vehicle: Klucel (hydroxypropylcellulose) (HPC) 99 % of control | dose: 25.0 mg/kg/injection, schedule: Q01DX005 (ip), vehicle: Klucel (hydroxypropylcellulose) (HPC) 100 % of control | [8] 87 % of control and 92 % of control | [9] 92 % of control

CCCC(=O)NNC(=O)c1ccccn1
inactive: dose: 25.0 mg/kg/injection, schedule: Q01DX009 (ip), vehicle: saline sonified 90 % of control | dose: 50.0 mg/kg/injection, schedule: Q01DX009 (ip), vehicle: saline sonified 95 % of control | dose: 100.0 mg/kg/injection, schedule: Q01DX009 (ip), vehicle: saline sonified 100 % of control

CN(C)C=C1C=c2cc(C(=O)c3ccccc3)c(=O)c(C(=O)c3ccccc3)cc2=C1
inactive: dose: 100.0 mg/kg/injection, schedule: Q01DX001 (ip), vehicle: saline 108 % of control | dose: 200.0 mg/kg/injection, schedule: Q01DX001 (ip), vehicle: saline 108 % of control | dose: 400.0 mg/kg/injection, schedule: Q01DX001 (ip), vehicle: saline 97 % of control

CCC1(c2ccccc2)C(=O)N(CCCl)C(=O)N(CCCl)C1=O
inactive: [5] 92 % of control | [6] 92 % of control | [7] 92 % of control

Nc1nc(SC2CCCCC2)c2[nH]cnc2n1
inactive: dose: 100.0 mg/kg/injection, schedule: Q01DX009 (ip), vehicle: saline with Tween-80 90 % of control | dose: 100.0 mg/kg/injection, schedule: Q04DX003 (ip), vehicle: saline with Tween-80 100 % of control | dose: 200.0 mg/kg/injection, schedule: Q01DX009 (ip), vehicle: saline with Tween-80 95 % of control | dose: 200.0 mg/kg/injection, schedule: Q04DX003 (ip), vehicle: saline with Tween-80 116 % of control | dose: 400.0 mg/kg/injection, schedule: Q01DX009 (ip), vehicle: saline with Tween-80 90 % of control | dose: 400.0 mg/kg/injection, schedule: Q04DX003 (ip), vehicle: saline with Tween-80 108 % of control

CCCCCCC1(/C=C/c2ccc(Cl)c(Cl)c2)OCCS1 (centres undefined)
inactive: dose: 12.5 mg/kg/injection, schedule: Q01DX009 (ip), vehicle: saline 96 % of control | dose: 25.0 mg/kg/injection, schedule: Q01DX009 (ip), vehicle: saline 104 % of control | [10] 100 % of control and 109 % of control and 95 % of control | [11] 95 % of control | [12] 88 % of control

NC(N)=O.NC(N)=O.NC(N)=O.NC(N)=O.NC(N)=O.NC(N)=O.[O-][Cl+3]([O-])([O-])O.[Ti+3]
inactive: [10] 99 % of control | [11] 92 % of control | [12] 86 % of control

CC12CCC(OC3CCCCO3)CC1=CCC1C2CCC2(C)C(O)/C(=N\O)CC12 (centres undefined)
inactive: [2] 91 % of control | [3] 94 % of control | [4] 90 % of control
